{
  "source": "patent US20060008512A1",
  "about": "“Composition and methods for improved animal performance” (priority 2004, published 2006)",
  "key": {"Bovans caged laying hens": {"test_system": "Bovans caged laying hens", "assay": "Experiment 6: molting of caged laying hens with dietary L-thyroxine or TIC plus MgO or sodium salicylate", "assay_type": "in vivo, chicken", "settings": "10 hours of light daily", "description": "Experiment 6. Molting of Caged Laying with Dietary L-Thyroxine or Thyroactive Iodinated Casein Plus MgO or Sodium Salicylate.\nIn Experiment 6, a conventional feed withdrawal molting procedure was compared with 5 dietary thyroxine treatments. Body weight loss after 9 days was greater, days to 0% egg production (9 days) shorter, ovary plus oviduct weight numerically lighter on day 9 of treatment, but eggs collected on day 4 of treatment had thinner shells, in the feed withdrawal group."}, "turkey breeder hens": {"test_system": "turkey breeder hens", "assay": "Experiment 7: molting of turkey breeder hens with dietary L-thyroxine, porcine thyroid powder or TIC with or without protease", "assay_type": "in vivo", "settings": "for Ending (10 d) Body Wt / Liver Weight / Ovary Weight / Oviduct Weight: turkey breeder hens, 6 per treatment", "description": "Experiment 7. Molting of Turkey Breeder Hens with Dietary L-Thyroxine, Porcine Thyroid Powder, or Thyroactive Iodinated Casein With or Without Protease. Turkey breeder hens were molted with various dietary thyroxine treatments at Diamond K Research, […]. (Jun. 20-Jul. 1, 2005)."}, "fine-wool Merino wethers": {"test_system": "fine-wool Merino wethers", "settings": "60 mg thyroxine implants in summer and autumn; cited from earlier work"}, "[1]": {"settings": "40 mg T4/kg diet, listed as L-T"}, "[2]": {"settings": "10 mg T4/kg diet fed for 10 days"}, "[3]": {"settings": "25 mg T4/kg diet fed for 10 days"}, "[4]": {"settings": "40 mg T4/kg diet fed for 10 days"}},
  "note": "Marks after values point to notes of the source that are not given here.",
  "data": [
    {"smiles": "N[C@@H](Cc1cc(I)c(Oc2cc(I)c(O)c(I)c2)c(I)c1)C(=O)O", "note": "[L-thyroxine, 3,5,3′,5′-tetraiodo-L-thyronine]", "values": [
      {"measurement": "2&4 Jun. 05 Egg Weight", "setting": "Bovans caged laying hens; 20 mg T4/kg diet", "value": 58.68, "unit": "g"},
      {"measurement": "4 Jun. 05 Shell + Membrane", "setting": "Bovans caged laying hens; 20 mg T4/kg diet", "value": "0.466^a mm"},
      {"measurement": "9 Jun. 05 (9th d Trt) Body Wt Change", "setting": "Bovans caged laying hens; 20 mg T4/kg diet", "value": "−0.50^b lb"},
      {"measurement": "9 Jun. 05 Ovary + Oviduct", "setting": "Bovans caged laying hens; 20 mg T4/kg diet", "value": 4.59, "unit": "% B Wt"},
      {"measurement": "25 May 05 Initial Body Wt", "setting": "Bovans caged laying hens; 20 mg T4/kg diet", "value": 3.49, "unit": "lb"},
      {"measurement": "Days to 0% Egg Prod. (by Replicate)", "setting": "Bovans caged laying hens; 20 mg T4/kg diet", "value": "12.0^a Days"},
      {"measurement": "2&4 Jun. 05 Egg Weight", "setting": "Bovans caged laying hens; 40 mg T4/kg diet", "value": 60.17, "unit": "g"},
      {"measurement": "4 Jun. 05 Shell + Membrane", "setting": "Bovans caged laying hens; 40 mg T4/kg diet", "value": "0.446^a mm"},
      {"measurement": "9 Jun. 05 (9th d Trt) Body Wt Change", "setting": "Bovans caged laying hens; 40 mg T4/kg diet", "value": "−0.54", "unit": "lb"},
      {"measurement": "9 Jun. 05 Ovary + Oviduct", "setting": "Bovans caged laying hens; 40 mg T4/kg diet", "value": 3.19, "unit": "% B Wt"},
      {"measurement": "25 May 05 Initial Body Wt", "setting": "Bovans caged laying hens; 40 mg T4/kg diet", "value": 3.57, "unit": "lb"},
      {"measurement": "Days to 0% Egg Prod. (by Replicate)", "setting": "Bovans caged laying hens; 40 mg T4/kg diet", "value": 11, "unit": "days"},
      {"measurement": "9 Jun. 05 (9th d Trt) Body Wt Change", "setting": "Bovans caged laying hens; [1]", "value": "−0.60^b lb"},
      {"measurement": "Days to 0% Egg Prod. (by Replicate)", "setting": "Bovans caged laying hens; [1]", "value": "11.0^a Days"},
      {"measurement": "Ending (10 d) Body Wt", "setting": "turkey breeder hens; [2]", "value": 23.03, "unit": "lb"},
      {"measurement": "Liver Weight", "setting": "turkey breeder hens; [2]", "value": "143.0^bc g"},
      {"measurement": "Ovary Weight", "setting": "turkey breeder hens; [2]", "value": "159.1^a g"},
      {"measurement": "Oviduct Weight", "setting": "turkey breeder hens; [2]", "value": "124.1^a g"},
      {"measurement": "Ending (10 d) Body Wt", "setting": "turkey breeder hens; [3]", "value": 25.11, "unit": "lb"},
      {"measurement": "Liver Weight", "setting": "turkey breeder hens; [3]", "value": "144.6^b g"},
      {"measurement": "Ovary Weight", "setting": "turkey breeder hens; [3]", "value": "160.5^a g"},
      {"measurement": "Oviduct Weight", "setting": "turkey breeder hens; [3]", "value": "134.7^a g"},
      {"measurement": "Ending (10 d) Body Wt", "setting": "turkey breeder hens; [4]", "value": 22.99, "unit": "lb"},
      {"measurement": "Liver Weight", "setting": "turkey breeder hens; [4]", "value": "141.9^bc g"},
      {"measurement": "Ovary Weight", "setting": "turkey breeder hens; [4]", "value": "129.1^a g"},
      {"measurement": "Oviduct Weight", "setting": "turkey breeder hens; [4]", "value": "138.7^a g"},
      {"measurement": "Regressing reproductive tracts", "setting": "turkey breeder hens; 10, 20, or 40 mg T4/kg diet, 10 days", "value": "not as effective as porcine thyroid powder"},
      {"measurement": "Increase in annual fleece weight", "setting": "fine-wool Merino wethers", "value": 34, "unit": "%"}
    ]}
  ]
}
